Experimental findings from patent US10533010B2, “Substituted indole Mcl-1 inhibitors” (Vanderbilt University, priority 2014, dated 2020) are described below.

The assay deals with recombinant Mcl-1 (residues 172-327) (Homo sapiens (Human), UniProt Q07820). The experiment in a line: Fluorescence polarization anisotropy competition assay (FITC-Bak or FITC-Bim BH3 peptide) with Mcl-1. It is filed as binding. Conditions: Table 2; Ki bins given in nM; FITC-Bak or FITC-Bim peptide competition; Ki converted from IC50; read-out: Ki for Inhibition of Mcl-1. In general terms: In fluorescence polarisation assays a small probe gives low polarisation when free and higher when bound to something large.
recombinant Mcl-1 (residues 172-327), sequence (Q07820 172-327): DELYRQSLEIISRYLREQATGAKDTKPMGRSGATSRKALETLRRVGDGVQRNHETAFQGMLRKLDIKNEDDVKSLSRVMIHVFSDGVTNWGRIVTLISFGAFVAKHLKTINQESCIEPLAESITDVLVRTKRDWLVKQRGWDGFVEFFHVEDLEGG

For the compound `Cc1cc(OCCCc2c3n(c4c(-c5c(C)nn(C)c5C)c(Cl)ccc24)CCN(Cc2ccc(C(=O)O)cn2)C3=O)cc(C)c1Cl` [I-142, 6-((7-chloro-10-(3-(4-chloro-3,5-dimethylphenoxy)propyl)-1-oxo-6-(1,3,5-trimethyl-1H-pyrazol-4-yl)-3,4-dihydropyrazino[1,2-a]indol-2(1H)-yl)methyl)nicotinic acid], the Ki was less than 50 nM. On to `Cc1cc(OCCCc2c3n(c4c(-c5c(C)nn(C)c5C)c(Cl)ccc24)CCN(Cc2ccc(C(=O)O)o2)C3=O)cc(C)c1Cl` [I-143, 5-((7-chloro-10-(3-(4-chloro-3,5-dimethylphenoxy)propyl)-1-oxo-6-(1,3,5-trimethyl-1H-pyrazol-4-yl)-3,4-dihydropyrazino[1,2-a]indol-2(1H)-yl)methyl)furan-2-carboxylic acid], for which the inhibition constant Ki was less than 50 nM. Next, `Cc1cc(OCCCc2c3n(c4c(-c5c(C)nn(C)c5C)c(Cl)ccc24)C(C)[C@@H](C)N(Cc2ccc(C(=O)O)cc2)C3=O)cc(C)c1Cl` (stereo partly drawn) [I-144, 4-(((3R)-7-chloro-10-(3-(4-chloro-3,5-dimethylphenoxy)propyl)-3,4-dimethyl-1-oxo-6-(1,3,5-trimethyl-1H-pyrazol-4-yl)-3,4-dihydropyrazino[1,2-a]indol-2(1H)-yl)methyl)benzoic acid]: less than 50 nM. Turning to `Cc1cc(OCCCc2c3n(c4c(-c5c(C)nn(C)c5C)c(Cl)ccc24)C(C)[C@@H](C)N(Cc2cccc(C(=O)O)c2)C3=O)cc(C)c1Cl` (stereo partly drawn) [I-145, 3-(((3R)-7-chloro-10-(3-(4-chloro-3,5-dimethylphenoxy)propyl)-3,4-dimethyl-1-oxo-6-(1,3,5-trimethyl-1H-pyrazol-4-yl)-3,4-dihydropyrazino[1,2-a]indol-2(1H)-yl)methyl)benzoic acid], the Ki was less than 50 nM. Next, `Cc1cc(OCCCc2c3n(c4c(-c5c(C)nn(C)c5C)c(Cl)ccc24)C(C)[C@@H](C)N(Cc2ccc(C(=O)O)cn2)C3=O)cc(C)c1Cl` (stereo partly drawn) [I-146, 6-(((3R)-7-chloro-10-(3-(4-chloro-3,5-dimethylphenoxy)propyl)-3,4-dimethyl-1-oxo-6-(1,3,5-trimethyl-1H-pyrazol-4-yl)-3,4-dihydropyrazino[1,2-a]indol-2(1H)-yl)methyl)nicotinic acid]: less than 50 nM. With `Cc1cc(OCCCc2c3n(c4c(-c5c(C)nn(C)c5C)c(Cl)ccc24)C(C)[C@@H](C)N(Cc2ccc(C(=O)O)o2)C3=O)cc(C)c1Cl` (stereo partly drawn) [I-147, 5-(((3R)-7-chloro-10-(3-(4-chloro-3,5-dimethylphenoxy)propyl)-3,4-dimethyl-1-oxo-6-(1,3,5-trimethyl-1H-pyrazol-4-yl)-3,4-dihydropyrazino[1,2-a]indol-2(1H)-yl)methyl)furan-2-carboxylic acid] the figure was less than 50 nM.

With `Cc1cc(OCCCc2c3n(c4c(-c5c(C)nn(C)c5C)c(Cl)ccc24)[C@@H](C)CN(Cc2ccc(C(=O)O)o2)C3=O)cc(C)c1Cl` [I-148, (S)-5-((7-chloro-10-(3-(4-chloro-3,5-dimethylphenoxy)propyl)-4-methyl-1-oxo-6-(1,3,5-trimethyl-1H-pyrazol-4-yl)-3,4-dihydropyrazino[1,2-a]indol-2(1H)-yl)methyl)furan-2-carboxylic acid], the Ki is less than 50 nM. Regarding `Cc1cc(OCCCc2c3n(c4c(-c5c(C)nn(C)c5C)c(Cl)ccc24)[C@@H](C)CN(Cc2ccc(C(=O)O)cn2)C3=O)cc(C)c1Cl` [I-149, (S)-6-((7-chloro-10-(3-(4-chloro-3,5-dimethylphenoxy)propyl)-4-methyl-1-oxo-6-(1,3,5-trimethyl-1H-pyrazol-4-yl)-3,4-dihydropyrazino[1,2-a]indol-2(1H)-yl)methyl)nicotinic acid], the Ki was less than 50 nM. With `Cc1cc(OCCCc2c3n(c4c(-c5c(C)nn(C)c5C)c(Cl)ccc24)[C@@H](C)CN(Cc2ccc(C(=O)O)cc2)C3=O)cc(C)c1Cl` [I-150, (S)-4-((7-chloro-10-(3-(4-chloro-3,5-dimethylphenoxy)propyl)-4-methyl-1-oxo-6-(1,3,5-trimethyl-1H-pyrazol-4-yl)-3,4-dihydropyrazino[1,2-a]indol-2(1H)-yl)methyl)benzoic acid], the Ki is less than 50 nM. As to `Cc1cc(OCCCc2c3n(c4c(-c5c(C)nn(C)c5C)c(Cl)ccc24)[C@@H](C)CN(Cc2cccc(C(=O)O)c2)C3=O)cc(C)c1Cl` [I-151, (S)-3-((7-chloro-10-(3-(4-chloro-3,5-dimethylphenoxy)propyl)-4-methyl-1-oxo-6-(1,3,5-trimethyl-1H-pyrazol-4-yl)-3,4-dihydropyrazino[1,2-a]indol-2(1H)-yl)methyl)benzoic acid], the Ki was less than 50 nM. For `Cc1cc(OCCCc2c3n(c4c(-c5c(C)nn(C)c5C)c(Cl)ccc24)[C@H](C)CN(Cc2ccc(C(=O)O)o2)C3=O)cc(C)c1Cl` [I-152, (R)-5-((7-chloro-10-(3-(4-chloro-3,5-dimethylphenoxy)propyl)-4-methyl-1-oxo-6-(1,3,5-trimethyl-1H-pyrazol-4-yl)-3,4-dihydropyrazino[1,2-a]indol-2(1H)-yl)methyl)furan-2-carboxylic acid], the Ki is less than 50 nM. Next, `Cc1cc(OCCCc2c3n(c4c(-c5c(C)nn(C)c5C)c(Cl)ccc24)[C@H](C)CN(Cc2ccc(C(=O)O)cn2)C3=O)cc(C)c1Cl` [I-153, (R)-6-((7-chloro-10-(3-(4-chloro-3,5-dimethylphenoxy)propyl)-4-methyl-1-oxo-6-(1,3,5-trimethyl-1H-pyrazol-4-yl)-3,4-dihydropyrazino[1,2-a]indol-2(1H)-yl)methyl)nicotinic acid]: less than 50 nM. With `Cc1cc(OCCCc2c3n(c4c(-c5c(C)nn(C)c5C)c(Cl)ccc24)[C@H](C)CN(Cc2ccc(C(=O)O)cc2)C3=O)cc(C)c1Cl` [I-154, (R)-4-((7-chloro-10-(3-(4-chloro-3,5-dimethylphenoxy)propyl)-4-methyl-1-oxo-6-(1,3,5-trimethyl-1H-pyrazol-4-yl)-3,4-dihydropyrazino[1,2-a]indol-2(1H)-yl)methyl)benzoic acid], the Ki is less than 50 nM. As for `Cc1cc(OCCCc2c3n(c4c(-c5c(C)nn(C)c5C)c(Cl)ccc24)[C@H](C)CN(Cc2cccc(C(=O)O)c2)C3=O)cc(C)c1Cl` [I-155, (R)-3-((7-chloro-10-(3-(4-chloro-3,5-dimethylphenoxy)propyl)-4-methyl-1-oxo-6-(1,3,5-trimethyl-1H-pyrazol-4-yl)-3,4-dihydropyrazino[1,2-a]indol-2(1H)-yl)methyl)benzoic acid], the Ki is less than 50 nM. With `Cc1cc(OCCCc2c3n(c4c(-c5c(C)nn(C)c5C)c(Cl)ccc24)C[C@@H](C)N(c2ccc(C(=O)O)cc2)C3=O)cc(C)c1Cl` [I-156, (R)-4-(7-chloro-10-(3-(4-chloro-3,5-dimethylphenoxy)propyl)-3-methyl-1-oxo-6-(1,3,5-trimethyl-1H-pyrazol-4-yl)-3,4-dihydropyrazino[1,2-a]indol-2(1H)-yl)benzoic acid], the Ki is less than 50 nM. Regarding `Cc1cc(OCCCc2c3n(c4c(-c5c(C)nn(C)c5C)c(Cl)ccc24)C[C@@H](C)N(c2cccc(C(=O)O)c2)C3=O)cc(C)c1Cl` [I-157, (R)-3-(7-chloro-10-(3-(4-chloro-3,5-dimethylphenoxy)propyl)-3-methyl-1-oxo-6-(1,3,5-trimethyl-1H-pyrazol-4-yl)-3,4-dihydropyrazino[1,2-a]indol-2(1H)-yl)benzoic acid], the Ki is less than 50 nM. `Cc1cc(OCCCc2c3n(c4c(-c5c(C)nn(C)c5C)c(Cl)ccc24)C[C@@H](C)N(c2ccc(C(=O)O)c4ncccc24)C3=O)cc(C)c1Cl` [I-158, (R)-5-(7-chloro-10-(3-(4-chloro-3,5-dimethylphenoxy)propyl)-3-methyl-1-oxo-6-(1,3,5-trimethyl-1H-pyrazol-4-yl)-3,4-dihydropyrazino[1,2-a]indol-2(1H)-yl)quinoline-8-carboxylic acid]: the Ki was less than 50 nM.

For `Cc1cc(OCCCc2c3n(c4c(-c5c(C)nn(C)c5C)c(Cl)ccc24)C[C@@H](C)N(c2cc(C(=O)O)cc4c2ccn4C)C3=O)cc(C)c1Cl` [I-159, (R)-4-(7-chloro-10-(3-(4-chloro-3,5-dimethylphenoxy)propyl)-3-methyl-1-oxo-6-(1,3,5-trimethyl-1H-pyrazol-4-yl)-3,4-dihydropyrazino[1,2-a]indol-2(1H)-yl)-1-methyl-1H-indole-6-carboxylic acid], the Ki is less than 50 nM. For the compound `Cc1cc(OCCCc2c3n(c4c(-c5c(C)nn(C)c5C)c(Cl)ccc24)C[C@@H](C)N(c2cc(C(=O)O)c4ccn(C)c4c2)C3=O)cc(C)c1Cl` [I-160, (R)-6-(7-chloro-10-(3-(4-chloro-3,5-dimethylphenoxy)propyl)-3-methyl-1-oxo-6-(1,3,5-trimethyl-1H-pyrazol-4-yl)-3,4-dihydropyrazino[1,2-a]indol-2(1H)-yl)-1-methyl-1H-indole-4-carboxylic acid], the Ki is less than 50 nM. `Cc1cc(OCCCc2c3n(c4c(-c5c(C)nn(C)c5C)c(Cl)ccc24)CCN(c2ccc(C(=O)O)c4ncccc24)C3=O)cc(C)c1Cl` [I-161, 5-(7-chloro-10-(3-(4-chloro-3,5-dimethylphenoxy)propyl)-1-oxo-6-(1,3,5-trimethyl-1H-pyrazol-4-yl)-3,4-dihydropyrazino[1,2-a]indol-2(1H)-yl)quinoline-8-carboxylic acid]: the Ki is less than 50 nM. With `Cc1cc(OCCCc2c3n(c4c(-c5c(C)nn(C)c5C)c(Cl)ccc24)CCN(c2cc(C(=O)O)c4ccn(C)c4c2)C3=O)cc(C)c1Cl` [I-162, 6-(7-chloro-10-(3-(4-chloro-3,5-dimethylphenoxy)propyl)-1-oxo-6-(1,3,5-trimethyl-1H-pyrazol-4-yl)-3,4-dihydropyrazino[1,2-a]indol-2(1H)-yl)-1-methyl-1H-indole-4-carboxylic acid] the figure was less than 50 nM. Turning to `Cc1cc(OCCCc2c3n(c4c(-c5c(C)nn(C)c5C)c(Cl)ccc24)CCN(c2cc(C(=O)O)cc4c2ccn4C)C3=O)cc(C)c1Cl` [I-163, 4-(7-cholro-10-(3-(4-chloro-3,5-dimethylphenoxy)propyl)-1-oxo-6-(1,3,5-trimethyl-1H-pyrazol-4-yl)-3,4-dihydropyrazino[1,2-a]indol-2(1H)-yl)-1-methyl-1H-indole-6-carboxylic acid], the Ki is less than 50 nM.

Broadly, the Ki is the dissociation constant of the complex between target and ligand, obtained from inhibition or displacement.
